The source of these data is US8759363B2, “Quinazoline-based T cell proliferation inhibitors” (Yissum Research Development Company of the Hebrew …, priority 2010, dated 2014).

The subject of one data set is PBMC. Nature of the data set: PBMC proliferation, BrdU incorporation. Format: cell-based, human. The conditions noted are these: Homo sapiens; ConA-stimulated PBMC, BrdU uptake; nM ± SD; read-out: IC50 PBMC proliferation inhibition. The method, then:
Blood samples were taken from healthy donors and loaded on a Ficoll density gradient to purify the PBMC population. T cells were purified by human anti-CD3 using an autoMACS instrument (Miltenyi Biotec, Bergisch-Gladbach, Germany), according to the manufacturer's instructions. The identity of T cells was confirmed by flow cytometry, as they stained positive for CD3. Cells were stimulated with ConA (10 μg/ml), ODN2006 (0.5 μg/ml; Enzo Life Sciences), or LPS (50 μg/ml; Sigma-Aldrich, Steinheim, Germany), for 72 h in the presence of the inhibitor, and their proliferation was measured in the BrdU incorporation assay as will be later described.
(§1) Cells were depleted of fetal calf serum (FCS) for 12 hours. They were then stimulated to proliferate by addition of ConA (10 μg/ml) for PBMC from healthy individuals and for Jurkat cells, FCS (10%) for HEK293 and A375 cells, PDGF (30 ng/ml) for NIH 3T3 cells, and EGF (30 ng/ml) for MDA-MB-231, Cells (1×10^5) were cultured in 96-well plates for 3 days in the presence or absence of inhibitors at the concentrations specified in the text. Each condition was tested in duplicate wells.
(§2) Proliferation was assessed by BrdU incorporation using a colorimetric ELISA kit (Roche, Germany). Subsequent to labeling with 10 μM BrdU, DNA was denatured and the cells were incubated with anti-BrdU-POD, prior to the addition of colorimetric substrate (TMB). The reaction product was quantified by measuring absorbance at 450 nm in an ELISA plate reader (ELx800 BIO-TEK Instruments Inc.).
(§3) Since we were not prejudiced towards any specific protein kinase, we used a biological assay for T cell proliferation. We tested our libraries for inhibition of proliferation of PBMC and Jurkat cells (Table 3). Cell proliferation was measured by BrdU uptake. […] PBMC cells were stimulated by a non-specific T cell mitogen, Concanavalin A (ConA). All of the compounds that were tested inhibited proliferation at micromolar or sub-micromolar concentrations.

The subject of another data set is Jurkat cells. Nature of the data set: Jurkat cell proliferation, BrdU incorporation. Format: cell-based, human. The conditions noted are these: Homo sapiens, Jurkat, BrdU uptake; nM ± SD; read-out: IC50 Jurkat cells proliferation inhibition. The procedure: as §1, §2, §3
On the technique in general: Dividing cells build labelled thymidine or BrdU into new DNA.

In data set [1] the test system is IL-2 secretion by 2C splenocytes stimulated by irradiated BALB/c splenocytes. The experiment in a line: IL-2 levels in MLR supernatants. It counts as cell-based, mouse. The conditions noted are these: 24, 48 and 72 h MLR; compound 2 up to 1 μM. The method, then: In the mixed lymphocyte reaction, stimulator cells cause responder cells to proliferate, owing to alloreactivity [Reich-Zeliger et al., 2004]. Splenocytes from 2c mice were stimulated by irradiated splenocytes from BALB/c mice in the presence of the evaluated compound at the concentrations specified. Cultures were incubated for 72 hours in 96-well plates.
Jurkat or PBMC cells were treated for 12 h with 1 μM, 0.5 μM or no inhibitor. Cells (1×10^6) were plated in 24-well plates (Nunc) and stimulated by C305 (dilution 1:500), anti-CD28 (1:100), PMA (50 ng/ml) or ionomycin (1 μM) for 12 h. Alternately, cells were stimulated for 24, 48 and 72 h in MLR. After stimulation cells were centrifuged at 130×g for 5 minutes at room temperature.
Supernatants were collected and IL-2 was assayed using the IL-2 ELISA kit (BioSource International USA, KH0022) according to the manufacturer's instructions. Absorbance was read at 450 nm in an ELISA plate reader (ELx800 BIO-TEK Instruments Inc.).
In vivo, T cells are stimulated by neighboring cells. In order to test the effect of 2 on cell-stimulated IL-2 secretion, the supernatants of splenocytes after 24, 48 and 72 h MLR were collected and analyzed for their IL-2 levels (FIG. 5C). […] At higher concentrations, no viable cells remained.

Data set [2] has as its system CD8+ (2C) and CD4+ (TEA) T cells. Nature of the data set: MLR, double-positive CD8+1B2+ (2C) or CD4+/Va2+ (TEA) effector cells by FACS. The conditions noted are these: 72 h MLR. It counts as cell-based, mouse. The text has this:
Mice used included male and female 6- to 12-week-old CB6/F1 mice, obtained from the Roscoe B. Jackson Memorial Laboratory (The Jackson Laboratory, Bar Harbor, Me., http://www.jax.org). A breeding pair of transgenic (Tg) H-2b mice expressing the T-cell antigen receptor (TCR) 1B2 from the CD8+ clone 2C with specificity for H-2Ld was kindly provided by Janko Nikolic-Zugic (Memorial Sloan-Kettering Cancer Center, New York, http://www.mskcc.org). A breeding pair of Tg H-2b mice expressing the TCR from the CD4+ clone known as TEA with specificity for I-Ead allopeptide, cross-presented by host APC and bound to I-Ab and was kindly provided by Alexander Y. Rudensky (University of Washington, Seattle). I-Ead allopeptide corresponds to the positions 52 to 68 from the alpha-chain of I-E class II molecules and is expressed in all APCs from H-2b/I-E+ strains (CB6F1-hybrid of C57BL/6 and Balb/c). C57BL/6 mice are H-2b but I-E−, whereas BALB/c are H-2d and I-E+, and therefore their F1 hybrids are H-2b/1-E+ and able to directly present antigen.
Responder 2C splenocytes were harvested, and the cell suspensions were treated with Tris-buffered ammonium chloride to remove RBC. […] On day 3, the MLR cultures were harvested, and analyzed by FACS for CD4 or CD8 levels.
FACS analysis was performed using a modified FACScan (BD Biosciences, Mountain View, Calif.). Fluorescence data were collected during one minute. […]
(A flow cytometer gives signals particle by particle.)

In the next data set the test system is 2C (stimulated) cells. The experiment in a line: MLR with resting control cells, stimulated 2C cells. It counts as cell-based, mouse. The conditions noted are these: 0.5 μM, 72 h MLR with IL-7; no inhibitor 3805. The text has this: (§4) The aim of this test was to determine whether 2 affects only the proliferating cells or there is a general mechanism affecting all cell numbers. For this purpose we mixed 3 cell types: […]: BALB/c, 2C and OT1; […]: CB6F1, TEA and OT2. The OT1 and OT2 are splenocytes that were isolated from OT1 and OT2 mice (Jackson Laboratories, Bar Harbor, Me.),
(§5) Thus, the ability to monitor the fate of proliferation and resting cells by FACS was enabled due to the use of the MLR described above for CD4+ and CD8+ and the addition of OT2 and OT1 splenocytes, respectively.
(§6) Proliferating cells often secrete cytokines that induce survival of neighbouring cells; since the proliferation was expected to be inhibited we added 50 ng/ml of IL-7. This concentration is sufficient to keep the cells alive, but not to induce proliferation.
(§7) Irradiated Balb splenocytes were incubated for 72 h with 2C, and OT1 splenocytes in the presence of IL-7 W/O inhibitor.
(§8) The CD4+ and CD8+ were stimulated to proliferate, whereas in the absence of specific stimuli the OT1 and OT2 cell populations were resting, and theses cells were kept alive by the administration of IL-7. […] The number of 2C and OT1 cells that were treated with 0.5 μM 2 was 286 and 1148, respectively, while the number of 2C and OT1 cells that were treated with 0.5 μM 21 (control) was 4767 and 2468, respectively. This is depicted as a bar-graph in FIG. 8C.

In the next data set the test system is OT1 (resting) cells. Nature of the data set: MLR with resting control cells, resting OT1 cells. Format: cell-based, mouse. The conditions noted are these: 0.5 μM, 72 h MLR with IL-7; no inhibitor 2459.
Source text: as §4, §5, §6, §7, §8

A further data set relates to TEA (stimulated) cells. Nature of the data set: MLR with resting control cells, stimulated TEA cells. Format: cell-based, mouse. The conditions noted are these: 0.5 μM, 72 h MLR with IL-7; no inhibitor 3850.
Source text: as §4, §5, §6
(§9) The number of TEA and OT2 cells that were treated with 0.5 μM 2 was 1452 and 826, respectively, while the number of 2C and OT1 cells that were treated with 0.5 μM 21 was 3003 and 903, respectively. This is depicted as a bar-graph in FIG. 9C.

The next data set deals with OT2 (resting) cells. Nature of the data set: MLR with resting control cells, resting OT2 cells. The conditions noted are these: 0.5 μM, 72 h MLR with IL-7; no inhibitor 1025. Format: cell-based, mouse.
Source text: as §4, §5, §6, §9

Take `Cc1ccc(Nc2nc(-c3cc(O)c(O)c(O)c3)nc3ccccc23)cc1` [Compound 21, 5-(4-(p-tolylamino)quinazolin-2-yl)benzene-1,2,3-triol]: the melting point (commonly the temperature of the solid-liquid transition) is above 250 °C. Further, in the data set with PBMC, the IC50 was 850 ± 0.21 nM. Besides, the IC50 in the data set on Jurkat cells turned out to be 850 ± 0.21 nM. In addition, the “IL-2 levels in MLR supernatants” value in data set [1] was “decreased after 72 h”. Further, in data set [2], the “percentage of double-positive effector cells” value was “no reduction was observed”. In the data set with 2C (stimulated) cells, the “number of 2C (stimulated) cells” value stood at 4767. Also, the “number of OT1 (resting) cells” value in the data set with OT1 (resting) cells was 2468. For the same compound, in the data set with TEA (stimulated) cells, the “number of TEA (stimulated) cells” value turned out to be 3003. Moreover, the “number of OT2 (resting) cells” value in the data set on OT2 (resting) cells turned out to be 903.

`OCc1ccccc1Nc1nc(-c2cc(O)c(O)c(O)c2)nc2ccccc12` [Compound 28, 5-(4-(2-(hydroxymethyl)phenylamino)quinazolin-2-yl)benzene-1,2,3-triol] registered a melting point above 250 °C. Further, the IC50 in the data set on PBMC is 900 ± 0.14 nM. Moreover, the IC50 in the data set on Jurkat cells came out at 650 ± 0.21 nM.

Turning to `Oc1cc(-c2nc(NCc3ccccc3)c3ccccc3n2)cc(O)c1O` [Compound 29, 5-(4-(benzylamino)quinazolin-2-yl)benzene-1,2,3-triol], the melting point was above 250 °C. For the same compound, the IC50 with PBMC came out at 7000 ± 3.5 nM. Further, the IC50 with Jurkat cells came out at 950 ± 0.07 nM.

On to `Nc1ccc(CNc2nc(-c3cc(O)c(O)c(O)c3)nc3ccccc23)cc1` [Compound 30, 5-(4-(4-aminobenzylamino)quinazolin-2-yl)benzene-1,2,3-triol], for which the melting point is above 250 °C. In the data set with PBMC, the IC50 worked out at 570 ± 0.24 nM. The IC50 in the data set with Jurkat cells worked out at 670 ± 0.22 nM.

With `Oc1cc(-c2nc(NCc3ccc(F)c(F)c3)c3ccccc3n2)cc(O)c1O` [Compound 31, 5-(4-(3,4-difluorobenzylamino)quinazolin-2-yl)benzene-1,2,3-triol], the melting point is above 250 °C. Moreover, in the data set with PBMC, the IC50 was 280 ± 0.04 nM. In addition, the IC50 with Jurkat cells stood at 600 ± 0.21 nM.

The compound `Oc1cc(-c2nc(NCc3ccc(Cl)c(Cl)c3)c3ccccc3n2)cc(O)c1O` [Compound 32, 5-(4-(3,4-dichlorobenzylamino)quinazolin-2-yl)benzene-1,2,3-triol] had a melting point above 250 °C. Besides, the IC50 in the data set with PBMC stood at 2600 ± 0.24 nM. Also, the IC50 with Jurkat cells came to 3640 ± 0.54 nM.

Compound `COc1ccc(CNc2nc(-c3cc(O)c(O)c(O)c3)nc3ccccc23)cc1` [Compound 33, 5-(4-(4-methoxybenzylamino)quinazolin-2-yl)benzene-1,2,3-triol] yielded a melting point above 250 °C. The IC50 in the data set on PBMC amounted to 3260 ± 0.49 nM. The IC50 in the data set on Jurkat cells was found to be 5430 ± 0.76 nM.

`Oc1cc(-c2nc(Nc3ccc4[nH]ncc4c3)c3ccccc3n2)cc(O)c1O` [Compound 35, 5-(4-(1H-indazol-5-ylamino)quinazolin-2-yl)benzene-1,2,3-triol] came in with a melting point above 250 °C. Also, the IC50 in the data set with PBMC stood at 780 ± 0.67 nM. Also, the IC50 in the data set with Jurkat cells came to 710 ± 0.87 nM.

In turn, `Oc1cc(-c2nc(NCCc3c[nH]c4ccccc34)c3ccccc3n2)cc(O)c1O` [Compound 36, 5-(4-(2-(1H-indol-3-yl)ethylamino)quinazolin-2-yl)benzene-1,2,3-triol] registered a melting point above 250 °C. In the data set with PBMC, the IC50 worked out at 1240 ± 0.74 nM. In the data set on Jurkat cells, the IC50 was 1970 ± 0.74 nM.

`Oc1cc(-c2nc(Nc3ccc4c(c3)OCO4)c3ccccc3n2)cc(O)c1O` [Compound 37, 5-(4-(benzo[d][1,3]dioxol-5-ylamino)quinazolin-2-yl)benzene-1,2,3-triol] gave a melting point above 250 °C. Besides, in the data set on PBMC, the IC50 was found to be 5500 ± 6.36 nM. In addition, in the data set on Jurkat cells, the IC50 amounted to 800 ± 0.28 nM.

`Oc1cc(-c2nc(Nc3ccc4nc[nH]c4c3)c3ccccc3n2)cc(O)c1O` [Compound 38, 5-(4-(3H-benzo[d]imidazol-5-ylamino)quinazolin-2-yl)benzene-1,2,3-triol] showed a melting point above 250 °C. In addition, the IC50 in the data set with PBMC turned out to be 4340 ± 0.74 nM. Further, in the data set with Jurkat cells, the IC50 worked out at 2570 ± 0.82 nM.
